# Laboratory results: patent US10278964B2, “Medical treatments based on anamorelin” (HELSINN HEALTHCARE SA, priority 2014, dated 2019)
# Several values for one entry are separate records, joined by “and”; a condition that tells them apart may be missing. Equal entries are not always repeated. Entries after “also recorded” stand apart in the source; their conditions may differ.
# Experiments:
# healthy subjects [1] = details: 50 or 75 mg doses; after 6 days; cited from earlier work
# healthy subjects [2] = details: cited from earlier work
# [3] = test system: patients with various cancers with cachexia; details: 50 mg once per day, cited from earlier work
# [4] = test system: patients with various cancers and cachexia; details: 50 mg once per day; cited from earlier work
# [5] = test system: patients with NSCLC-Cachexia; experiment: Romana 1: randomized, double-blind, placebo-controlled phase 3 study of anamorelin HCl; type: in vivo, human; details: for Fatigue Domain of FACIT-F, change from baseline, subgroup / Simplified Evaluation of Fatigue (SEF), change from baseline, subgroup: MITT
# Description: Example 1 Anamorelin HCl in the Treatment of Non-Small Cell Lung Cancer—Cachexia (NSCLC-C): A Randomized, Double-Blind, Placebo-Controlled, Multicenter, Phase III Study to Evaluate the Safety and Efficacy of Anamorelin HCl in Patients with NSCLC-C(Romana 1)
# (§1) Key features of the Romana 1 study are as follows: • DESIGN: randomized, double-blind, placebo-controlled, multicenter, phase 3 study to evaluate the safety and efficacy of anamorelin HCl (anamorelin) in patients with NSCLC-Cachexia (59 sites; 15 countries) • PRIMARY ENDPOINT: Lean body mass (LBM) by DXA • SECONDARY ENDPOINTS: • Key: pooled overall survival, Anorexia/Cachexia sub-domain, Fatigue sub-domain, Simplified Evaluation of Appetite (SEA), and Simplified Evaluation of Fatigue (SEF) • Other: Body weight, study specific overall survival, FAACT/FACIT-F trial outcome index (TOI) and total scores, additional LBM analyses • EXPLORATORY ENDPOINTS: Hunger Assessment Scale (HAS), Karnofsky (KPS), responder analyses; Population pharmacokinetics (PK) in 90 patients • STUDY POPULATION: advanced NSCLC (unresectable Stage III or IV) and cachexia (≥5% body weight within 6 months or screening BMI<20 kg/m^2) • SAMPLE SIZE: 484 patients; randomization ratio 2:1 (anamorelin:placebo) • DOSING: placebo or 100 mg anamorelin for 12 weeks • SAFETY ASSESSMENTS: Adverse events (AEs), labs, vitals, ECGs
# [6] = test system: patients with NSCLC-Cachexia; experiment: Romana 2: randomized, double-blind, placebo-controlled phase 3 study of anamorelin HCl; type: in vivo, human
# Description: Example 2 Anamorelin HCL in the Treatment of Non-Small Cell Lung Cancer—Cachexia (NSCLC-C): A Randomized, Double-Blind, Placebo-Controlled, Multicenter, Phase III Study to Evaluate the Safety and Efficacy of Anamorelin Hcl in Patients with NSCLC-C(Romana 2)
# as §1, with “Romana 2” for “Romana 1”, “SIZE: 495” for “SIZE: 484”
# [7] = test system: patients with advanced non-small cell lung cancer (NSCLC); details: cited from earlier work
# [8] = test system: patients with cancer anorexia-cachexia syndrome; details: cited from earlier work
# [9] = test system: patients with advanced cancer and cachexia; details: after 4 weeks; cited from earlier work
# [10] = ITT population, 100 mg anamorelin for 12 weeks, LBM by DXA
# [11] = ITT population, over 12 weeks, 100 mg
# [12] = MITT population, 12-week study period, anamorelin vs. placebo
# [13] = MITT population, over 12 weeks, 100 mg
# [14] = anamorelin treatment for 12 weeks
structure (smiles),measurement,setting,value
CN(C)N(C)C(=O)[C@@]1(Cc2ccccc2)CCCN(C(=O)[C@@H](Cc2c[nH]c3ccccc23)NC(=O)C(C)(C)N)C1 [anamorelin],Body weight gain versus placebo,healthy subjects [1],significant dose-related weight gain
same,Body weight,healthy subjects [2]; 50 mg dose (single or split dose) and 75 mg dose,significant increases
same,GH levels,"healthy subjects [2]; all doses (25, 50, 75 mg)",significantly increased
same,IGF-1 levels,"healthy subjects [2]; all doses (25, 50, 75 mg)",significantly increased
same,ASAS scores,[3],improved
same,Fat mass decrease vs. placebo,[3],the difference did not reach statistical significance
same,Quality of life as measured by the FACIT-F test,[3],No significant effects
same,Scale weight measures,[3],no corresponding increase
same,Levels of IGF-1,"[3]; weeks 4, 8, and 12",significantly increased
same,Levels of IGFBP-3,"[3]; weeks 4, 8, and 12",significantly increased
same,Lean body mass compared to placebo,[3]; weeks 4 and 8,significantly increased
same,Total body mass compared to placebo,[3]; weeks 4 and 8,significantly increased
same,Appetite as measured by BACRI-7,[4],no significant difference
same,Body weight compared with placebo,[4],significantly increased
same,Enjoyment from eating (BACRI-7),[4],significantly more patients reported greater enjoyment from eating
same,FACIT-F scores,[4],significantly increased
same,Food intake,[4],increased but not significantly
same,GH levels,[4],significantly increased
same,IGF-1 levels,[4],significantly increased
same,IGFBP-3 levels,[4],significantly increased
same,Patient-reported appetite as measured by ASAS,[4],significantly improved
same,"Lean Body Mass, median change from baseline over 12 weeks",[5]; [10],1.10 kg
same,"Lean Body Mass, median treatment difference (anamorelin vs. placebo)",[5]; [11],1.54 kg
same,"FAACT TOI, overall treatment difference",[5]; [12],2.86±1.161
same,"FAACT Total, overall treatment difference",[5]; [12],2.67±1.459
same,"FACIT TOI, overall treatment difference",[5]; [12],1.90±1.358
same,"FACIT Total, overall treatment difference",[5]; [12],2.07±1.651
same,"Anorexia/Cachexia Domain, Treatment Difference (anamorelin vs. placebo), LS Mean (SE)",[5]; [13],2.21 (0.617)
same,"Body Weight, Treatment Difference (anamorelin vs. placebo), LS Mean (SE)",[5]; [13],2.07 (0.325) kg
same,"Body Weight, overall change from baseline, LS Mean (SE)",[5]; [13],2.20±0.3 kg and 2.20 (0.326) kg
same,"FACIT-F Fatigue Domain, change from baseline, LS Mean (SE)",[5]; [13],0.26 (0.886)
same,"SEA Score, Treatment Difference (anamorelin vs. placebo), LS Mean (SE)",[5]; [13],0.65 (0.262)
same,"SEA Score, change from baseline, LS Mean (SE)",[5]; [13],1.57 (0.317)
same,"SEF Score, Treatment Difference (anamorelin vs. placebo), LS Mean (SE)",[5]; [13],0.33 (0.265)
same,"SEF Score, change from baseline, LS Mean (SE)",[5]; [13],0.11 (0.309)
same,"Fatigue Domain of FACIT-F, change from baseline, subgroup","[5]; BMI>18.5, Week 3 to 12",smaller improvement trend
same,"Simplified Evaluation of Fatigue (SEF), change from baseline, subgroup",[5]; BMI≤18.5 (statistically significant at Week 3 and 6),improvement trend over 12 Weeks
same,"Fatigue Domain of FACIT-F, change from baseline, subgroup","[5]; ECOG 0-1, Week 3, 6, 9 to 12",gap increase between placebo and anamorelin
same,"Fatigue Domain of FACIT-F, change from baseline, subgroup","[5]; aged 65 years and younger, concomitant opioid use, ECOG 2 (Weeks 9 and 12), BMI≤18.5",statistically significant improvement
same,"Simplified Evaluation of Fatigue (SEF), change from baseline, subgroup",[5]; concomitant opioid use,small trend of improvement
same,"Fatigue Domain of FACIT-F, change from baseline, subgroup","[5]; males, Week 3 to 6 (statistically significant at Week 9)",general improvement trend
same,"Fatigue Domain of FACIT-F, change from baseline, subgroup",[5]; no-concomitant opioid use,smaller overall improvement trend
same,Tolerability,[5]; [14],well tolerated
same,Percentage change from baseline in LBM,[5]; throughout the 12-week study,consistent improvement
same,"FACIT-F score (fatigue), change from baseline","[5]; week 9, 100 mg",0.33±0.9
same,"FACIT-F score (fatigue), change from baseline","[5]; week 12, 100 mg",0.48±1.0
same,"Lean Body Mass, median change from baseline over 12 weeks",[6]; [10],0.75
same,"Lean Body Mass, median treatment difference (anamorelin vs. placebo)",[6]; [11],1.71
same,FAACT TOI and total score (cachexia concerns),[6]; MITT population,trending benefit
same,FACIT-F TOI and total score,[6]; MITT population,No benefit
same,SEF score vs. placebo,"[6]; MITT population, 12-week study period",overall small trend of improvement; also recorded: not statistically different from placebo
same,"Anorexia/Cachexia Domain, Treatment Difference (anamorelin vs. placebo), LS Mean (SE)",[6]; [13],2.14 (0.676)
same,"Body Weight, Treatment Difference (anamorelin vs. placebo), LS Mean (SE)",[6]; [13],1.53 (0.327) kg
same,"Body Weight, overall change from baseline, LS Mean (SE)",[6]; [13],0.95 (0.386) kg
same,"FAACT Anorexia/Cachexia Domain, change from baseline, LS Mean (SE)",[6]; [13],3.48 (0.944)
same,"SEA Score, Treatment Difference (anamorelin vs. placebo), LS Mean (SE)",[6]; [13],0.66 (0.283)
same,"SEA Score, change from baseline, LS Mean (SE)",[6]; [13],1.08 (0.400)
same,"FACIT-F fatigue score, subgroup","[6]; MITT, BMI less than or equal to 18.5",maintained a steady score after Week 3
same,"FACIT-F fatigue score, subgroup","[6]; MITT, ECOG of 2",general trend of improvement
same,"SEF score, subgroups","[6]; MITT, concomitant opioid use and BMI≤18.5",Specific improvements
same,"FACIT-F fatigue score, subgroup","[6]; MITT, concomitantly taking opioids, after Week 3",did not experience as severe of a decline in score as those in the placebo group
same,"FACIT-F fatigue score, subgroup","[6]; MITT, patients under the age of 65, after Week 3",did not experience as severe of a decline in score as those in the placebo group
same,Tolerability,[6]; [14],well tolerated
same,Concerns related to weight and body image (FAACT),[6]; in vivo,an improvement
same,Percentage of change in LBM,[6]; in vivo,consistent increases
same,"Symptoms of early satiety and appetite (individual FAACT questions), change from baseline over time",[6]; in vivo,showed an improvement
same,Average weight gain from baseline to week 12,[7]; 100 mg once daily,statistically significant average weight gain
same,IGFBP-3 as compared to placebo,[7]; 50 or 100 mg once daily,statistically significant increases
same,MD Anderson Symptom Inventory (MDASI) scores,[7]; 50 or 100 mg once daily,the improvement was not significant
CC(=O)O[C@]1(C(C)=O)CC[C@H]2[C@@H]3C=C(C)C4=CC(=O)CC[C@]4(C)[C@H]3CC[C@@]21C [megestrol acetate],Quality of life in cancer cachexia patients,"[8]; 13 of 14 studies no significant difference vs placebo, dronabinol, eicosapentaenoic acid or glucocorticosteroids",has not been shown to improve
same,Body weight and water,"[8]; human, in vivo",only been shown to increase body weight and water
same,Fat mass or lean body mass,"[8]; human, in vivo",does not improve
COc1ccc2[nH]cc(CCNC(C)=O)c2c1 [melatonin],"Weight, body composition (including fat-free mass), symptom scores, quality-of-life outcomes (FACIT-F and FAACT) vs placebo",[9],No differences
